Source: US20020137929A1, “1 - (3-heterocyclylphenyl) isothiourea, -isourea, -guanidine and -amidine herbicidal agents” (Intellectual Property Department, BASF Aktiengesellschaft, priority 1998, published 2002)

Columns and labels:
GALAP (Galium) = experiment: Postemergence herbicidal evaluation; format: in vivo, Galium aparine; conditions: for GALAP herbicidal rating: postemergence
How it was run: (§1)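 Herbicidal effect was judged by eye on a 0–9 scale covering stand, vigor, deformity, size and chlorosis, compared with controls, four to five weeks after seedlings about two weeks old were sprayed (40 psi, ~0.0156–0.500 kg/ha).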

ZEAMX (Corn, Field) = experiment: Preemergence herbicidal evaluation; format: in vivo, Zea mays; conditions: rated 4-5 weeks after treatment
How it was run: (§2)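 Scores (0–9) reflect visual comparison with control plants for stand, vigor, malformation, size and chlorosis. Compound was applied to the soil after sowing, before emergence, as an aqueous acetone spray (about 0.0156–0.500 kg/ha), and cups were kept in a greenhouse for 4–5 weeks.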

[1] = system: TRZAWR (Wheat, Winter, cv Riband); experiment: Preemergence herbicidal evaluation; format: in vivo, Triticum aestivum; conditions: rated 4-5 weeks after treatment
How it was run: as §2

ABUTH (Velvetleaf) = experiment: Preemergence herbicidal evaluation; format: in vivo, Abutilon theophrasti; conditions: rated 4-5 weeks after treatment
How it was run: as §2

CASOB (Sicklepod) [2] = experiment: Preemergence herbicidal evaluation; format: in vivo, Cassia obtusifolia; conditions: rated 4-5 weeks after treatment
How it was run: as §2

[3] = system: IPOHE (Morningglory, Ivyleaf); experiment: Postemergence herbicidal evaluation; format: in vivo, Ipomoea hederacea; conditions: for IPOHE herbicidal rating: postemergence
How it was run: as §1

CYPIR (Rice Flatsedge) = experiment: Postemergence weed control under flooded paddy conditions; format: in vivo, Cyperus iria; conditions: postemergence weeds, 3-4 weeks after treatment
How it was run: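 With weeds 3 to 5 cm tall and rice at the 1.5 to 2.5 leaf stage, containers were flooded and water held 1.5 to 3 cm above soil. Compounds in 50/50 v/v aqueous/acetone went into the flood water at about 0.0313 to 0.500 kg/ha a.i. Effects were visually rated 0–9 against controls after three to four weeks in the greenhouse.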

[4] = system: SAGPY (Arrowhead (Pygmaea)); experiment: Preemergence weed control under flooded paddy conditions; format: in vivo, Sagittaria pygmaea; conditions: rated 3-4 weeks after treatment
How it was run: (§3)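 Greenhouse paddy assay. Acetone/water (50/50 v/v) solutions dosed into flood water, equivalent to about 0.0313 to 0.500 kg/ha active ingredient, over seeds planted 0.5 cm deep in silt loam. Score: 0-9 visual, based on stand, vigor, malformation, size and chlorosis, 3 to 4 weeks after treatment.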

CASOB (Sicklepod) [5] = experiment: Postemergence herbicidal evaluation; format: in vivo, Cassia obtusifolia; conditions: for CASOB herbicidal rating: postemergence
How it was run: as §1

ECHCG (Barnyardgrass) = experiment: Preemergence herbicidal evaluation; format: in vivo, Echinochloa crus-galli; conditions: rated 4-5 weeks after treatment
How it was run: as §2

MOOVA (Monochoria) = experiment: Preemergence weed control under flooded paddy conditions; format: in vivo, Monochoria vaginalis; conditions: rated 3-4 weeks after treatment
How it was run: as §3

AMBEL (Ragweed, Common) = experiment: Postemergence herbicidal evaluation; format: in vivo, Ambrosia artemisifolia; conditions: for AMBEL herbicidal rating: postemergence
How it was run: as §1

[6] = system: IPOHE (Morningglory, Ivyleaf); experiment: Preemergence herbicidal evaluation; format: in vivo, Ipomoea hederacea; conditions: rated 4-5 weeks after treatment
How it was run: as §2

[7] = system: GLXMAW (Soybean, Williams); experiment: Preemergence herbicidal evaluation; format: in vivo, Glycine max, (L.) Merr. cv Williams; conditions: rated 4-5 weeks after treatment
How it was run: as §2

## CCOC(=O)CN1C(=O)C(=Cc2ccc(F)cc2)SC1=Nc1cc(-n2c(=O)cc(C(F)(F)F)n(C)c2=O)c(F)cc1Cl [Compound 21, Ethyl 2-{{2-chloro-5-[3,6-dihydro-3-methyl-2,6-dioxo-4-(trifluoromethyl)-1(2H)-pyrimidinyl]-4-fluorophenyl}imino}-5-(p-fluorobenzylidene)-4-oxo-3-thiazolidineacetate]
GALAP (Galium); rate 0.0158 kg/ha
  GALAP herbicidal rating: 2.0
GALAP (Galium); rate 0.0315 kg/ha
  GALAP herbicidal rating: 2.0
GALAP (Galium); rate 0.0630 kg/ha
  GALAP herbicidal rating: 4.0
ZEAMX (Corn, Field); rate 0.2500 kg/ha
  ZEAMX preemergence herbicidal rating: 0.0
[1]; rate 0.2500 kg/ha
  TRZAWR preemergence herbicidal rating: 0.0
ABUTH (Velvetleaf); rate 0.2500 kg/ha
  ABUTH preemergence herbicidal rating: 2.0
CASOB (Sicklepod) [2]; rate 0.2500 kg/ha
  CASOB preemergence herbicidal rating: 0.0
[3]; rate 0.0158 kg/ha
  IPOHE herbicidal rating: 1.0
[3]; rate 0.0315 kg/ha
  IPOHE herbicidal rating: 2.0
[3]; rate 0.0630 kg/ha
  IPOHE herbicidal rating: 9.0
CYPIR (Rice Flatsedge); rate 0.1160 kg/ha
  Herbicidal rating CYPIR: 0.0
CYPIR (Rice Flatsedge); rate 0.2310 kg/ha
  Herbicidal rating CYPIR: 0.0
CYPIR (Rice Flatsedge); rate 0.4630 kg/ha
  Herbicidal rating CYPIR: 0.0
[4]; 0.1160 kg/ha
  Herbicidal rating SAGPY: 0.0
[4]; 0.2310 kg/ha
  Herbicidal rating SAGPY: 0.0
[4]; 0.4630 kg/ha
  Herbicidal rating SAGPY: 0.0
CASOB (Sicklepod) [5]; rate 0.0158 kg/ha
  CASOB herbicidal rating: 0.0
CASOB (Sicklepod) [5]; rate 0.0315 kg/ha
  CASOB herbicidal rating: 0.0
CASOB (Sicklepod) [5]; rate 0.0630 kg/ha
  CASOB herbicidal rating: 0.0
ECHCG (Barnyardgrass); rate 0.2500 kg/ha
  ECHCG preemergence herbicidal rating: 0.0
MOOVA (Monochoria); 0.1160 kg/ha
  Herbicidal rating MOOVA: 0.0
MOOVA (Monochoria); 0.2310 kg/ha
  Herbicidal rating MOOVA: 0.0
MOOVA (Monochoria); 0.4630 kg/ha
  Herbicidal rating MOOVA: 0.0
AMBEL (Ragweed, Common); rate 0.0158 kg/ha
  AMBEL herbicidal rating: 4.0
AMBEL (Ragweed, Common); rate 0.0315 kg/ha
  AMBEL herbicidal rating: 4.0
AMBEL (Ragweed, Common); rate 0.0630 kg/ha
  AMBEL herbicidal rating: 6.0
[6]; rate 0.2500 kg/ha
  IPOHE preemergence herbicidal rating: 0.0
[7]; rate 0.2500 kg/ha
  GLXMAW preemergence herbicidal rating: 0.0

## O=C(O)CC1SC(=Nc2cc(N3C(=O)C4=C(CCCC4)C3=O)c(F)cc2Cl)N(CC(=O)O)C1=O (centres unmarked) [Compound 48, 2-{[2-Chloro-5-(1-cyclohexene-1,2-dicarboximido)-4-fluorophenyl]imino}-4-oxo-3,5-thiazolidinediacetic acid]
GALAP (Galium); Rate 0.0156 kg/ha
  Postemergence herbicidal rating GALAP: 0.0
GALAP (Galium); Rate 0.0313 kg/ha
  Postemergence herbicidal rating GALAP: 0.0
GALAP (Galium); Rate 0.0625 kg/ha
  Postemergence herbicidal rating GALAP: 0.0
ZEAMX (Corn, Field); rate 0.0156 kg/ha
  Preemergence herbicidal rating ZEAMX: 0.0
ZEAMX (Corn, Field); rate 0.0313 kg/ha
  Preemergence herbicidal rating ZEAMX: 0.0
ZEAMX (Corn, Field); rate 0.0625 kg/ha
  Preemergence herbicidal rating ZEAMX: 0.0
ZEAMX (Corn, Field); rate 0.1250 kg/ha
  Preemergence herbicidal rating ZEAMX: 0.0
ZEAMX (Corn, Field); rate 0.2500 kg/ha
  Preemergence herbicidal rating ZEAMX: 2.0
[1]; rate 0.0156 kg/ha
  Preemergence herbicidal rating TRZAWR: 0.0
[1]; rate 0.0313 kg/ha
  Preemergence herbicidal rating TRZAWR: 0.0
[1]; rate 0.0625 kg/ha
  Preemergence herbicidal rating TRZAWR: 0.0
[1]; rate 0.1250 kg/ha
  Preemergence herbicidal rating TRZAWR: 0.0
[1]; rate 0.2500 kg/ha
  Preemergence herbicidal rating TRZAWR: 2.0
ABUTH (Velvetleaf); rate 0.0156 kg/ha
  Preemergence herbicidal rating ABUTH: 0.0
ABUTH (Velvetleaf); rate 0.0313 kg/ha
  Preemergence herbicidal rating ABUTH: 0.0
ABUTH (Velvetleaf); rate 0.0625 kg/ha
  Preemergence herbicidal rating ABUTH: 4.0
ABUTH (Velvetleaf); rate 0.1250 kg/ha
  Preemergence herbicidal rating ABUTH: 9.0
ABUTH (Velvetleaf); rate 0.2500 kg/ha
  Preemergence herbicidal rating ABUTH: 9.0
CASOB (Sicklepod) [2]; rate 0.0156 kg/ha
  Preemergence herbicidal rating CASOB: 0.0
CASOB (Sicklepod) [2]; rate 0.0313 kg/ha
  Preemergence herbicidal rating CASOB: 0.0
CASOB (Sicklepod) [2]; rate 0.0625 kg/ha
  Preemergence herbicidal rating CASOB: 0.0
CASOB (Sicklepod) [2]; rate 0.1250 kg/ha
  Preemergence herbicidal rating CASOB: 0.0
CASOB (Sicklepod) [2]; rate 0.2500 kg/ha
  Preemergence herbicidal rating CASOB: 3.0
[3]; Rate 0.0156 kg/ha
  Postemergence herbicidal rating IPOHE: 9.0
[3]; Rate 0.0313 kg/ha
  Postemergence herbicidal rating IPOHE: 9.0
[3]; Rate 0.0625 kg/ha
  Postemergence herbicidal rating IPOHE: 9.0
CYPIR (Rice Flatsedge); rate 0.1250 kg/ha
  Herbicidal rating CYPIR: 2.0
CYPIR (Rice Flatsedge); rate 0.2500 kg/ha
  Herbicidal rating CYPIR: 5.0
[4]; 0.1250 kg/ha
  Herbicidal rating SAGPY: 3.0
[4]; 0.2500 kg/ha
  Herbicidal rating SAGPY: 6.0
CASOB (Sicklepod) [5]; Rate 0.0156 kg/ha
  Postemergence herbicidal rating CASOB: 0.0
CASOB (Sicklepod) [5]; Rate 0.0313 kg/ha
  Postemergence herbicidal rating CASOB: 2.0
CASOB (Sicklepod) [5]; Rate 0.0625 kg/ha
  Postemergence herbicidal rating CASOB: 3.0
ECHCG (Barnyardgrass); rate 0.0156 kg/ha
  Preemergence herbicidal rating ECHCG: 0.0
ECHCG (Barnyardgrass); rate 0.0313 kg/ha
  Preemergence herbicidal rating ECHCG: 0.0
ECHCG (Barnyardgrass); rate 0.0625 kg/ha
  Preemergence herbicidal rating ECHCG: 0.0
ECHCG (Barnyardgrass); rate 0.1250 kg/ha
  Preemergence herbicidal rating ECHCG: 0.0
ECHCG (Barnyardgrass); rate 0.2500 kg/ha
  Preemergence herbicidal rating ECHCG: 0.0
MOOVA (Monochoria); 0.1250 kg/ha
  Herbicidal rating MOOVA: 3.0
MOOVA (Monochoria); 0.2500 kg/ha
  Herbicidal rating MOOVA: 6.0
AMBEL (Ragweed, Common); Rate 0.0156 kg/ha
  Postemergence herbicidal rating AMBEL: 3.0
AMBEL (Ragweed, Common); Rate 0.0313 kg/ha
  Postemergence herbicidal rating AMBEL: 5.0
AMBEL (Ragweed, Common); Rate 0.0625 kg/ha
  Postemergence herbicidal rating AMBEL: 9.0
[6]; rate 0.0156 kg/ha
  Preemergence herbicidal rating IPOHE: 0.0
[6]; rate 0.0313 kg/ha
  Preemergence herbicidal rating IPOHE: 0.0
[6]; rate 0.0625 kg/ha
  Preemergence herbicidal rating IPOHE: 0.0
[6]; rate 0.2500 kg/ha
  Preemergence herbicidal rating IPOHE: 0.0
[7]; rate 0.0156 kg/ha
  Preemergence herbicidal rating GLXMAW: 0.0
[7]; rate 0.0313 kg/ha
  Preemergence herbicidal rating GLXMAW: 0.0
[7]; rate 0.0625 kg/ha
  Preemergence herbicidal rating GLXMAW: 0.0
[7]; rate 0.1250 kg/ha
  Preemergence herbicidal rating GLXMAW: 0.0
[7]; rate 0.2500 kg/ha
  Preemergence herbicidal rating GLXMAW: 2.0
